# Experimental data published in ChEMBL document CHEMBL4765227, “Hit to lead optimization of a series of N-[4-(1,3-benzothiazol-2-yl)phenyl]acetamides as monoacylglycerol lipase inhibitors with potential anticancer activity” (Eur J Med Chem, 2016).
# Tests used:
# Format in all cases: functional
# Conditions in all cases: read-out: GI
# CCRF-CEM = experiment: Growth inhibition of human CCRF-CEM cells at 10 uM incubated for 48 hrs by sulforhodamine B assay relative to control
# EKVX = experiment: Growth inhibition of human EKVX cells at 10 uM incubated for 48 hrs by sulforhodamine B assay relative to control
# HOP-62 = experiment: Growth inhibition of human HOP-62 cells at 10 uM incubated for 48 hrs by sulforhodamine B assay relative to control
# HOP-92 = experiment: Growth inhibition of human HOP-92 cells at 10 uM incubated for 48 hrs by sulforhodamine B assay relative to control
# NCI-H460 = experiment: Growth inhibition of human NCI-H460 cells at 10 uM incubated for 48 hrs by sulforhodamine B assay relative to control
# COLO 205 = experiment: Growth inhibition of human COLO 205 cells at 10 uM incubated for 48 hrs by sulforhodamine B assay relative to control
# HCT-116 = experiment: Growth inhibition of human HCT-116 cells at 10 uM incubated for 48 hrs by sulforhodamine B assay relative to control
# HCT-15 = experiment: Growth inhibition of human HCT-15 cells at 10 uM incubated for 48 hrs by sulforhodamine B assay relative to control
# SW-620 = experiment: Growth inhibition of human SW-620 cells at 10 uM incubated for 48 hrs by sulforhodamine B assay relative to control
# SNB-75 = experiment: Growth inhibition of human SNB-75 cells at 10 uM incubated for 48 hrs by sulforhodamine B assay relative to control
# LOX IMVI = experiment: Growth inhibition of human LOX IMVI cells at 10 uM incubated for 48 hrs by sulforhodamine B assay relative to control
# SK-MEL-28 = experiment: Growth inhibition of human SK-MEL-28 cells at 10 uM incubated for 48 hrs by sulforhodamine B assay relative to control
# NCI/ADR-RES = experiment: Growth inhibition of human NCI/ADR-RES cells at 10 uM incubated for 48 hrs by sulforhodamine B assay relative to control
# A498 = experiment: Growth inhibition of human A498 cells at 10 uM incubated for 48 hrs by sulforhodamine B assay relative to control
# CAKI-1 = experiment: Growth inhibition of human CAKI-1 cells at 10 uM incubated for 48 hrs by sulforhodamine B assay relative to control
compound,measurement,setting,value
O=C(Cn1cncn1)Nc1ccc(-c2nc3ccccc3s2)cc1,inhibition of growth at 10 µM,CCRF-CEM,-4.97%
same,inhibition of growth at 10 µM,EKVX,9.8%
same,inhibition of growth at 10 µM,HOP-62,-2.28%
same,inhibition of growth at 10 µM,HOP-92,6.49%
same,inhibition of growth at 10 µM,NCI-H460,2.97%
same,inhibition of growth at 10 µM,COLO 205,-6.86%
same,inhibition of growth at 10 µM,HCT-116,4.58%
same,inhibition of growth at 10 µM,HCT-15,-1.4%
same,inhibition of growth at 10 µM,SW-620,-6.34%
same,inhibition of growth at 10 µM,SNB-75,7.87%
same,inhibition of growth at 10 µM,LOX IMVI,0.66%
same,inhibition of growth at 10 µM,SK-MEL-28,-11%
same,inhibition of growth at 10 µM,NCI/ADR-RES,-1.6%
same,inhibition of growth at 10 µM,A498,11.6%
same,inhibition of growth at 10 µM,CAKI-1,6.2%
Cc1cc(NCC(=O)Nc2ccc(-c3nc4ccccc4s3)cc2)no1,inhibition of growth at 10 µM,CCRF-CEM,46.3%
same,inhibition of growth at 10 µM,EKVX,-7.95%
same,inhibition of growth at 10 µM,HOP-62,-10.9%
same,inhibition of growth at 10 µM,HOP-92,-0.34%
same,inhibition of growth at 10 µM,NCI-H460,-2.65%
same,inhibition of growth at 10 µM,COLO 205,-7.78%
same,inhibition of growth at 10 µM,HCT-116,9.26%
same,inhibition of growth at 10 µM,HCT-15,9.32%
same,inhibition of growth at 10 µM,SW-620,-13.2%
same,inhibition of growth at 10 µM,SNB-75,-11.5%
same,inhibition of growth at 10 µM,LOX IMVI,143%
same,inhibition of growth at 10 µM,SK-MEL-28,-10.5%
same,inhibition of growth at 10 µM,NCI/ADR-RES,-2.68%
same,inhibition of growth at 10 µM,A498,10.3%
same,inhibition of growth at 10 µM,CAKI-1,-3.5%
